Values belong to the compound of their own block, whether it stands above or below them. Activity calls are given as the source filed them. No cut-off for these calls is given here.
What was measured:
[1] = Drug uptake in mouse Lymph node at 1000 long pass by fluorescence imaging based analysis; format: ADME, tissue-based; conditions: in vivo
[2] = Drug excretion in Balb/c mouse liver administered as iv dose measured after 12 hrs by NIR-II fluorescence imaging analysis; format: ADME, organism-based; conditions: in vivo
[3] = Toxicity in BALB/c mouse assessed as effect on heart at 6.84 ug, IG pretreated with compound for 2 hrs followed by laser irradiation at 808nm 1.0 W/cm2 for 5 mins and measured after 14 days by H and E staining based analysis; format: tissue-based; conditions: in vivo, po, 336 h, dose 6.84 µg, time 14 day
4T1 [4] = assay: Antitumor activity against mouse 4T1 cells xenografted in BALB/c mouse model assessed as increase in tumor temperature at 6.84 ug, IG pretreated with compound for 2 hrs followed by laser irradiation at 808nm 1.0 W/cm2 for 5 mins (reference value: 34 degreeC); format: functional; conditions: dose 6.84 µg, time 125 min, 2.083 h
[5] = Toxicity in BALB/c mouse assessed as effect on tumor at 6.84 ug, IG measured after 14 days by H and E staining based analysis; conditions: in vivo, po, 336 h, dose 6.84 µg, time 14 day
4T1 [6] = assay: Cytotoxicity in mouse 4T1 cells assessed as increase in red fluorescence at 100 uM incubated for 12 hrs followed by 808nm laser irradiation for 5 mins and measured after 12 hrs by Calcein-AM and PI staining based fluorescence microscopy analysis; format: functional, cell-based; conditions: time 1445.0 min
[7] = Toxicity in BALB/c mouse assessed as effect on kidney at 6.84 ug, IG pretreated with compound for 2 hrs followed by laser irradiation at 808nm 1.0 W/cm2 for 5 mins and measured after 14 days by H and E staining based analysis; format: tissue-based; conditions: in vivo, po, 336 h, dose 6.84 µg, time 14 day
[8] = Toxicity in BALB/c mouse assessed as ALT level in serum measured after 7 to 14 days by biochemical analysis; conditions: time 7-14 day
NIH3T3 = assay: Cytotoxicity in mouse 3T3 cells at upto 100 uM incubated for 24 hrs by CCK-8 method; format: toxicity, cell-based; conditions: nih3t3, 24 h
[9] = Toxicity in BALB/c mouse assessed as creatinine level in serum measured after 7 to 14 days by biochemical analysis; conditions: time 7-14 day
[10] = Toxicity in BALB/c mouse assessed as effect on liver at 6.84 ug, IG measured after 14 days by H and E staining based analysis; format: tissue-based; conditions: in vivo, po, 336 h, dose 6.84 µg, time 14 day
[11] = Toxicity in BALB/c mouse assessed as effect on body weight at 6.84 ug, IG measured every two days for 14 days; conditions: in vivo, po, 336 h, dose 6.84 µg, time 14 day
[12] = Toxicity in BALB/c mouse assessed as UREA level in serum measured after 7 to 14 days by biochemical analysis; conditions: time 7-14 day
[13] = Toxicity in BALB/c mouse assessed as effect on lung at 6.84 ug, IG measured after 14 days by H and E staining based analysis; format: tissue-based; conditions: in vivo, po, 336 h, dose 6.84 µg, time 14 day
[14] = Toxicity in BALB/c mouse assessed as effect on lung measured after 24 hrs by real-time NIR-II fluorescence imaging analysis; format: tissue-based; conditions: in vivo
[15] = Toxicity in BALB/c mouse assessed as effect on kidney measured after 24 hrs by real-time NIR-II fluorescence imaging analysis; format: tissue-based; conditions: in vivo
[16] = Toxicity in BALB/c mouse assessed as effect on liver at 6.84 ug, IG pretreated with compound for 2 hrs followed by laser irradiation at 808nm 1.0 W/cm2 for 5 mins and measured after 14 days by H and E staining based analysis; format: tissue-based; conditions: in vivo, po, 336 h, dose 6.84 µg, time 14 day
[17] = Toxicity in BALB/c mouse assessed as effect on spleen at 6.84 ug, IG measured after 14 days by H and E staining based analysis; format: tissue-based; conditions: in vivo, po, 336 h, dose 6.84 µg, time 14 day
[18] = Toxicity in BALB/c mouse assessed as effect on heart measured after 24 hrs by real-time NIR-II fluorescence imaging analysis; format: tissue-based; conditions: in vivo
[19] = Toxicity in BALB/c mouse assessed as effect on lung at 6.84 ug, IG pretreated with compound for 2 hrs followed by laser irradiation at 808nm 1.0 W/cm2 for 5 mins and measured after 14 days by H and E staining based analysis; format: tissue-based; conditions: in vivo, po, 336 h, dose 6.84 µg, time 14 day
[20] = Toxicity in BALB/c mouse assessed as effect on body weight at 6.84 ug, IG pretreated with compound for 2 hrs followed by laser irradiation at 808nm 1.0 W/cm2 for 5 mins and measured every two days for 14 days; conditions: in vivo, po, 336 h, dose 6.84 µg, time 14 day
4T1 [21] = assay: Antitumor activity against mouse 4T1 cells xenografted in BALB/c mouse model assessed as induction of apoptosis at 6.84 ug, IG pretreated with compound for 2 hrs followed by laser irradiation at 808nm 1.0 W/cm2 for 5 mins and measured every two days for 14 days by TUNEL assay; format: functional; conditions: dose 6.84 µg, time 14.0 day
4T1 [22] = assay: Induction of intracellular ROS generation in mouse 4T1 cells preincubated with compound followed by laser irradiation at 808nm 1.0 W/cm2 by DCFDA staining based analysis; format: functional, cell-based
[23] = Toxicity in BALB/c mouse assessed as effect on tumor at 6.84 ug, IG pretreated with compound for 2 hrs followed by laser irradiation at 808nm 1.0 W/cm2 for 5 mins and measured after 14 days by H and E staining based analysis; conditions: in vivo, po, 336 h, dose 6.84 µg, time 14 day
4T1 [24] = assay: Antitumor activity against mouse 4T1 cells xenografted in BALB/c mouse model assessed as suppression of tumor at 6.84 ug, IG pretreated with compound for 2 hrs followed by laser irradiation at 808nm 1.0 W/cm2 for 5 mins and measured every two days for 14 days by vernier caliper analysis; format: functional; conditions: dose 6.84 µg, time 14.0 day
[25] = Toxicity in BALB/c mouse assessed as effect on spleen at 6.84 ug, IG pretreated with compound for 2 hrs followed by laser irradiation at 808nm 1.0 W/cm2 for 5 mins and measured after 14 days by H and E staining based analysis; format: tissue-based; conditions: in vivo, po, 336 h, dose 6.84 µg, time 14 day
4T1 [26] = assay: Cytotoxicity in mouse 4T1 cells at upto 100 uM incubated for 24 hrs by CCK-8 method; format: functional, cell-based
[27] = Drug uptake in mouse 4T1 cells assessed as increase in fluorescence measured upto 12 hrs by NIR-II fluorescence microscopic analysis; format: ADME, cell-based; conditions: 4t1, 12 h
4T1 [28] = assay: Cytotoxicity in mouse 4T1 cells assessed as increase in red fluorescence at 100 uM incubated for 12 hrs by Calcein-AM and PI staining based fluorescence microscopy analysis; format: functional, cell-based
[29] = Toxicity in BALB/c mouse assessed as ALB level in serum measured after 7 to 14 days by biochemical analysis; conditions: time 7-14 day
[30] = Drug metabolism in Balb/c mouse liver administered as iv dose by NIR-II fluorescence imaging analysis; format: ADME, organism-based; conditions: in vivo
4T1 [31] = assay: Cytotoxicity in mouse 4T1 cells assessed as decrease in cell survival at 75 uM incubated for 24 hrs under laser irradiation by CCK-8 method; format: functional, cell-based
[32] = Toxicity in BALB/c mouse assessed as effect on spleen measured after 24 hrs by real-time NIR-II fluorescence imaging analysis; format: tissue-based; conditions: in vivo
[33] = Toxicity in BALB/c mouse assessed as effect on kidney at 6.84 ug, IG measured after 14 days by H and E staining based analysis; format: tissue-based; conditions: in vivo, po, 336 h, dose 6.84 µg, time 14 day
[34] = Toxicity in BALB/c mouse assessed as AST level in serum measured after 7 to 14 days by biochemical analysis; conditions: time 7-14 day
4T1 [35] = assay: Antitumor activity against mouse 4T1 cells xenografted in BALB/c mouse model assessed as induction of apoptosis at 6.84 ug, IG measured every two days for 14 days by TUNEL assay; format: functional; conditions: dose 6.84 µg, time 14.0 day
[36] = Toxicity in BALB/c mouse assessed as effect on heart at 6.84 ug, IG measured after 14 days by H and E staining based analysis; format: tissue-based; conditions: in vivo, po, 336 h, dose 6.84 µg, time 14 day
[37] = Toxicity in BALB/c mouse assessed as effect on liver measured after 24 hrs by real-time NIR-II fluorescence imaging analysis; format: tissue-based; conditions: in vivo
[38] = Drug uptake in mouse Lymph node at 655/24nm band pass by fluorescence imaging based analysis; format: ADME, tissue-based; conditions: in vivo
[39] = Drug uptake in mouse Lymph node at 769/48nm long pass by fluorescence imaging based analysis; format: ADME, tissue-based; conditions: in vivo

Drug uptake [1]: Active
Structure (SMILES): CCn1/c(=C/C2=C([O-])C(=C/C3=[N+](CC)c4cccc5cccc3c45)/C2=O)c2cccc3cccc1c32

Drug excretion [2]: Active | Drug uptake [27]: Active | Drug metabolism [30]: Metabolite_Detected
Structure (SMILES): O=C1C(/C=c2\c3cccc4cccc(c43)n2CCCCS(=O)(=O)O)=C([O-])C/1=C/C1=[N+](CCCCS(=O)(=O)O)c2cccc3cccc1c23
Activity [3]: Non-Toxic | T (4T1 [4]): 54 °C | Activity [5]: Non-Toxic | Activity (4T1 [6]): Active | Activity [7]: Non-Toxic | Activity [8]: Non-Toxic | Activity (NIH3T3): Non-Toxic | Activity [9]: Non-Toxic | Activity [10]: Non-Toxic | Activity [11]: Non-Toxic | Activity [12]: Non-Toxic | Activity [13]: Non-Toxic | Activity [14]: Non-Toxic | Activity [15]: Non-Toxic | Activity [16]: Non-Toxic | Activity [17]: Non-Toxic | Activity [18]: Non-Toxic | Activity [19]: Non-Toxic | Activity [20]: Non-Toxic | Activity (4T1 [21]): Active | Activity (4T1 [22]): inactive | Activity [23]: Non-Toxic | Activity (4T1 [24]): Active | Activity [25]: Non-Toxic | Activity (4T1 [26]): inactive | Activity (4T1 [28]): inactive | Activity [29]: Non-Toxic | Activity (4T1 [31]): Active | Activity [32]: Non-Toxic | Activity [33]: Non-Toxic | Activity [34]: Non-Toxic | Activity (4T1 [35]): Active | Activity [36]: Non-Toxic | Activity [37]: Non-Toxic

Drug uptake [38]: Active
Structure (SMILES): CCN1/C(=C/C2=C([O-])C(=C/C3=[N+](CC)c4ccccc4C3(C)C)/C2=O)C(C)(C)c2ccccc21

Drug uptake [39]: Active
Structure (SMILES): CCN1/C(=C/C2=C([O-])C(=C/C3=[N+](CC)c4ccc5ccccc5c4C3(C)C)/C2=O)C(C)(C)c2c1ccc1ccccc21

— ChEMBL document CHEMBL5500391, “Systematic Structural Modification of Squaraine Dye for Near-Infrared Window One and Two Multiplexed In Vivo Imaging and Photothermal Therapy” (J Med Chem, 2024)
